From publication PMC7045412, “Natural biased signaling of hydroxycarboxylic acid receptor 3 and G protein-coupled receptor 84” (Cell Communication and Signaling : CCS, 2020)

How the values were obtained:
[1] = target: G protein-coupled receptor 84 (GPR84) (Homo sapiens, UniProt Q9NQS5); assay: cAMP inhibition, DMR and ERK assays in receptor-transfected CHO-K1/HEK293-T cells; assay type: cell-based
[2] = target: T1, hydroxycarboxylic acid receptor 3 (HCA3) (Homo sapiens, UniProt P49019); assay: DMR ([…]) in receptor-transfected CHO-K1 cells; assay type: cell-based
T1 construct: gene HCAR3
T1 sequence (P49019 whole entry): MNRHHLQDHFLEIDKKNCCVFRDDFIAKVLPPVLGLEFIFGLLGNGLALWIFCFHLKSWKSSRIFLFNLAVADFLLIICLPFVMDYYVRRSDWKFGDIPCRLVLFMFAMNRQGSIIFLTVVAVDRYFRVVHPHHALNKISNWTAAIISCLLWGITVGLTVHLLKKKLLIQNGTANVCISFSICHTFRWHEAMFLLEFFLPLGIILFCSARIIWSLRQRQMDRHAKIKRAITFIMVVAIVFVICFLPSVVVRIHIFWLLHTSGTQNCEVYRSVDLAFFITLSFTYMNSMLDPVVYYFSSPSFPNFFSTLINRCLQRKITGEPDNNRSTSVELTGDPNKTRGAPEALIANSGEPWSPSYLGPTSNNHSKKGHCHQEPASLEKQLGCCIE

G protein-coupled receptor 84 (GPR84), sequence (Q9NQS5 whole entry): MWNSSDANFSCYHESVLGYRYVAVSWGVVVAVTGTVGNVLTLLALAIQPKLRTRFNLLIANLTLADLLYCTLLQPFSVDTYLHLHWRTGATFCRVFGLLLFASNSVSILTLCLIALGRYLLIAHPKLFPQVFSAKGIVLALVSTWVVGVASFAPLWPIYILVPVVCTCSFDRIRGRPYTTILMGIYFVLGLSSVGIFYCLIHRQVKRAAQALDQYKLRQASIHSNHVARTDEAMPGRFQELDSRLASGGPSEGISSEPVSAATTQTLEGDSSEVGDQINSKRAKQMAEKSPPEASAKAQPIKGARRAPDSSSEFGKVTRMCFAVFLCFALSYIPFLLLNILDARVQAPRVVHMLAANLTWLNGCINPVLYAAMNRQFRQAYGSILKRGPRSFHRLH

Compound | EC50 [1] | DMR (250 μM) in receptor-transfected CHO-K1 cells [2]
CCCCCCCCCC(=O)O [C10, decanoic acid] | C10 and 3HDec activated GPR84. | –
N[C@H](Cc1ccccc1)C(=O)O [D-Phe, D-phenylalanine] | – | dynasore affected the DMR-response of human and gorilla HCA3 to D-Phe and L-PLA in a similar manner
CCCCCCCC(O)CC(=O)O (stereo not drawn) [3HDec, 3-hydroxydecanoic acid] | In contrast, C10 and 3HDec but not 3HO activated GPR84 | –
